This note sets out measurements from patent US20110257108A1, “SYNTHESIS AND ACTIVITY OF LACTOSE ESTERS” (Utah State University, priority 2010, published 2011).

Series [1] has as its system clinical isolates of Listeria monocytogenes. The series can be described thus: Microbial inhibitory studies with clinical isolates (microtitre well plate method, plate counts). The format is cell-based. The text has this: Referring now to FIGS. 8 through 12, in light of the microbial inhibitory effect shown with Listeria monocytogenese, we obtained clinical isolates of Listeria monocytogenes from the International Life Science Institute Database, Cornell University and tested LM at the same concentrations as listed above with the clinical isolate. Inhibitory effects against clinical isolates of Listeria monocytogenese are shown in FIGS. 8, 9, 10, 11 and 12 (inhibition shown is percent growth inhibition). The clinical isolates are described in Table 5.
Still referring to FIGS. 8 through 12, microbial inhibitory studies were carried out in microtitre well plate method. Cultures were grown in appropriate microbial media with antibiotics and diluted to 10^5 colony forming units (CFU) per mL. Cultures (0.5 mL or 10^2.5 CFU total) were added to microtiter wells and an initial optical density (OD) at 600 nm was recorded. The studies were conducted by adding different concentrations of LML as described above with appropriate controls (media only, media plus cells, media plus cells and 0.1% Polysorbate 80, same amount of ethanol as in the vol of LML plus 0.1% polysorbate 80 with cells). Plate counts of all controls and treatments were done. For each strain and treatment, the experiments were done 6 times and replicated at least once. Data shown has a coefficient of variation of less than 10%. […]

A further series relates to Listeria monocytogenes. The series can be described thus: Microbial growth inhibition (microtiter OD 600 nm, 48 hours). The following applies: gram positive, FIG. 7. It is filed as cell-based. On the procedure: (§1) Referring now to FIG. 7 and Table 4, the microbial inhibitory characteristics of LML synthesized and purified as described above, were investigated against Enterococcus faecalis (ATCC 700802), Listeria monocytogenes, Staphyloccus suis, Escherichia coli H7P:0157H7 (ATCC 35150), Salmonella typhimurium (ATCC 700720) and Klebsiella pneumoniae (ATCC 700721). Cultures were grown in appropriate microbial media with antibiotics and diluted to 10^5 colony forming units (CFU) per mL. Cultures (0.5 mL or 10^2.5 CFU total) were added to microtiter wells and an initial optical density (OD) at 600 nm was recorded. For treatments, LML in concentrations ranging from 0.001 to 0.1% was added to individual microtiter wells and the OD was again measured after 48 hours. Controls were treated similarly, but without the addition of LML. Percent growth inhibition was determined by comparing the OD reading for the controls and treatments.

Series [2] has as its system Enterococcus faecalis (ATCC 700802). Described as above. Conditions: gram positive, FIG. 7. The format is cell-based. On the procedure:
as §1

For series [3], the system named is Klebsiella pneumoniae (ATCC 700721). The description is as above. It is filed as cell-based. The following applies: gram negative; LML 0.001 to 0.1%; FIG. 7. On the procedure: as §1
Series [4] concerns Escherichia coli H7P:0157H7 (ATCC 35150). Described as above. The following applies: gram negative; LML 0.001 to 0.1%; FIG. 7. It is filed as cell-based. On the procedure:
as §1

The subject of the next series is Staphyloccus suis. Described as above. It is filed as cell-based. Conditions: gram positive, FIG. 7. On the procedure: as §1
Series [5] deals with Salmonella typhimurium (ATCC 700720). Described as above. It is filed as cell-based. Conditions: gram negative; LML 0.001 to 0.1%; FIG. 7. On the procedure:
as §1

The procedure of series [6]:
Aliquots, 600 μL, of each filtered sample were dried by a Savant SpeedVac system. The dry sugar in each tube was re-suspended in 600 μL de-ionized water. […] The amount of sugar in each sample was determined by comparing peak areas to the lactose-in-water control.

Take lactose monolaurate [LML]: in series [1] (LML 1.0 mg/mL, each strain (J1-177, C1-056, N3-013, R2-499, N1-227), with 0.1% Polysorbate 80, versus control with ethanol and tween), the percent growth inhibition was 70-90%. Besides, the “type of inhibition (plate counts)” value in series [1] (plate counts of treatments compared to the controls) is “bacterial static”. Further, the growth inhibition result is “limited inhibition” in the series on Listeria monocytogenes (LML 0.005% and less); “inhibited” with Listeria monocytogenes (LML 0.1% (1 mg/mL)); “limited inhibition” in series [2] (LML 0.005% and less); “inhibited” in series [2] (LML 0.1% (1 mg/mL)); “limited inhibition” in the series with Staphyloccus suis (LML 0.005% and less); “inhibited” in the series on Staphyloccus suis (LML 0.1% (1 mg/mL)). Moreover, the susceptibility to inhibition entry in series [3], in series [4] and in series [5] was “minimal susceptibility” throughout.

For `OC[C@H]1O[C@@](CO)(O[C@H]2O[C@H](CO)[C@@H](O)[C@H](O)[C@H]2O)[C@@H](O)[C@@H]1O` [sucrose], in series [6], the “solubility in 2M2B” value was 700-800 micromol/L solvent and the “solubility in the other solvents” value is 50-200 micromol/L solvent.
